ChEMBL document CHEMBL1144455, “A small molecule-kinase interaction map for clinical kinase inhibitors” (Nat Biotechnol, 2005)

What was measured:
[1] = target: T1, Serine/threonine-protein kinase 17A (Homo sapiens, UniProt Q9UEE5)
T1 sequence (Q9UEE5 whole entry): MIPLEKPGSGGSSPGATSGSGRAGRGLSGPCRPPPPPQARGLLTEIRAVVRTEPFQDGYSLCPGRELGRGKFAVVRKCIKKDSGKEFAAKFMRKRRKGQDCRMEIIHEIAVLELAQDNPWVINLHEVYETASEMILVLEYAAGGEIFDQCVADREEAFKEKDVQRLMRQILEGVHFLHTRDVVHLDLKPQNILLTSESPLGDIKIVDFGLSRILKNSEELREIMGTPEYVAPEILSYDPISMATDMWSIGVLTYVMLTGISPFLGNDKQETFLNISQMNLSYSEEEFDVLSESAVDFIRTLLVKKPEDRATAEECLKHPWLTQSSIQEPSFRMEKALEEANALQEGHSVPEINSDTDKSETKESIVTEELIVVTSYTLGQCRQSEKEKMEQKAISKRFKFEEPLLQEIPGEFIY

[2] = target: Tyrosine-protein kinase CSK (Homo sapiens, UniProt P41240)
Chain of Tyrosine-protein kinase CSK (P41240 whole entry): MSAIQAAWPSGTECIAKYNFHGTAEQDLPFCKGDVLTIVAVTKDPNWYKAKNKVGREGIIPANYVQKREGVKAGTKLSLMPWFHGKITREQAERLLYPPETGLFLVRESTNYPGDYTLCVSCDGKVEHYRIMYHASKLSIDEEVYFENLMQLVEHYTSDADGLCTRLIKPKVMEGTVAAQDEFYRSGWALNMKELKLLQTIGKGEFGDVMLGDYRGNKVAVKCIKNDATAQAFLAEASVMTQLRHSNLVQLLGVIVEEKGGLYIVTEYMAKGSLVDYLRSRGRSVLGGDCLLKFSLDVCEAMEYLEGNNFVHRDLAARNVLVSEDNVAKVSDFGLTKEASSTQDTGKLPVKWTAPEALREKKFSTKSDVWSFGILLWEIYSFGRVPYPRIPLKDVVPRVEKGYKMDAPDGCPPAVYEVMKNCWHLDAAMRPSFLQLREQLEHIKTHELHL

[3] = target: T2, Serine/threonine-protein kinase PLK4 (Homo sapiens, UniProt O00444)
T2 sequence (O00444 whole entry): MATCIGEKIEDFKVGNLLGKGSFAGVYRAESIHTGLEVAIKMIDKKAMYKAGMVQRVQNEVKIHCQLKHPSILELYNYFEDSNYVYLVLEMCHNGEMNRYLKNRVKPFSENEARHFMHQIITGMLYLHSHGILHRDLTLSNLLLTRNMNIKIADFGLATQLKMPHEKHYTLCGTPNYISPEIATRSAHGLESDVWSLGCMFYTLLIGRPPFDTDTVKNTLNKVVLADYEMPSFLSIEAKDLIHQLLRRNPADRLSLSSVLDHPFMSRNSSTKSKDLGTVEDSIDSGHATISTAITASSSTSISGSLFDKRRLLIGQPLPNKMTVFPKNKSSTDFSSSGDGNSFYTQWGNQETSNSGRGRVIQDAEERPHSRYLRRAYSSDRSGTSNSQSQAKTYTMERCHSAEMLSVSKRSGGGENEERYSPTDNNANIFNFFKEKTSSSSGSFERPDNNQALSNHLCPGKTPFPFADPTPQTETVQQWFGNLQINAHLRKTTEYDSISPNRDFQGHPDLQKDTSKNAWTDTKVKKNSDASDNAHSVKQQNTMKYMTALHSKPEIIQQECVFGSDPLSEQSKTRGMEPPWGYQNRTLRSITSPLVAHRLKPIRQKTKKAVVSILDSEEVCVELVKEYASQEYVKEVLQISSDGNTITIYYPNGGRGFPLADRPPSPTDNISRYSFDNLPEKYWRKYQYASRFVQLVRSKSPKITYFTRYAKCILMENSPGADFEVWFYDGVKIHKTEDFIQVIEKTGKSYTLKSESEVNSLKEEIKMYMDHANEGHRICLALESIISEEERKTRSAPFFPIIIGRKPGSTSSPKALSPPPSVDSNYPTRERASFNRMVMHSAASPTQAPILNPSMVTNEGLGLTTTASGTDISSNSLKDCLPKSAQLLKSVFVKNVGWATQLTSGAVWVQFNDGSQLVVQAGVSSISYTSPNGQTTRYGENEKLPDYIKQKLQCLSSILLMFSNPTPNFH

Focal adhesion kinase 1 = Focal adhesion kinase 1 (Homo sapiens, UniProt Q05397)
Chain of Focal adhesion kinase 1 (Q05397 whole entry): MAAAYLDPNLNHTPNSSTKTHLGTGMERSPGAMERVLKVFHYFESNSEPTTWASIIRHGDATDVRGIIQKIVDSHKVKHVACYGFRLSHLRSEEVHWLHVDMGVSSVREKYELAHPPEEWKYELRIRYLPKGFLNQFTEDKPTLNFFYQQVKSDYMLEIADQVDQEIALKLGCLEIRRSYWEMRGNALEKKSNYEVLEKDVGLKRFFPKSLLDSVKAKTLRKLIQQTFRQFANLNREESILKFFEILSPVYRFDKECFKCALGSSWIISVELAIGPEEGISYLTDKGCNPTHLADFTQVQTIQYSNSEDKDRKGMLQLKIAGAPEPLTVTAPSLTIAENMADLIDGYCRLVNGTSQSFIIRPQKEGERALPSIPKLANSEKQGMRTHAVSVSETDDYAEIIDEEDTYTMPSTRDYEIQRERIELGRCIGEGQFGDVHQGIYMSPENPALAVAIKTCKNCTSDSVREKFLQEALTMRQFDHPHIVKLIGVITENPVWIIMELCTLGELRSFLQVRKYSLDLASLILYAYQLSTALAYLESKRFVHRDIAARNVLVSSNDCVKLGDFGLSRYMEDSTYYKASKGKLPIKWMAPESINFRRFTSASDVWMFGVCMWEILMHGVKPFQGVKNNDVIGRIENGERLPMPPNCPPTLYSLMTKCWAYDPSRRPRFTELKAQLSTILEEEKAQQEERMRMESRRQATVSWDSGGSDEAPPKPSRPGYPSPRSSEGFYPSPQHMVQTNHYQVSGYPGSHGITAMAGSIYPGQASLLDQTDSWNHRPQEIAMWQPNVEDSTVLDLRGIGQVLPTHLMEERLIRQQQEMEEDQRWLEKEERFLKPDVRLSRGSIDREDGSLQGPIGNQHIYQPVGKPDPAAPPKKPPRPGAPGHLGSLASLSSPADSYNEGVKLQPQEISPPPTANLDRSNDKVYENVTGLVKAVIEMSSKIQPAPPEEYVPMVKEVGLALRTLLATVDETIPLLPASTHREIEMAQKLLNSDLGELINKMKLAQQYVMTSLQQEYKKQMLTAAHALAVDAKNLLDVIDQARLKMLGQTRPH

[4] = target: Mitogen-activated protein kinase kinase kinase 4 (Homo sapiens, UniProt Q9Y6R4)
Chain of Mitogen-activated protein kinase kinase kinase 4 (Q9Y6R4 whole entry): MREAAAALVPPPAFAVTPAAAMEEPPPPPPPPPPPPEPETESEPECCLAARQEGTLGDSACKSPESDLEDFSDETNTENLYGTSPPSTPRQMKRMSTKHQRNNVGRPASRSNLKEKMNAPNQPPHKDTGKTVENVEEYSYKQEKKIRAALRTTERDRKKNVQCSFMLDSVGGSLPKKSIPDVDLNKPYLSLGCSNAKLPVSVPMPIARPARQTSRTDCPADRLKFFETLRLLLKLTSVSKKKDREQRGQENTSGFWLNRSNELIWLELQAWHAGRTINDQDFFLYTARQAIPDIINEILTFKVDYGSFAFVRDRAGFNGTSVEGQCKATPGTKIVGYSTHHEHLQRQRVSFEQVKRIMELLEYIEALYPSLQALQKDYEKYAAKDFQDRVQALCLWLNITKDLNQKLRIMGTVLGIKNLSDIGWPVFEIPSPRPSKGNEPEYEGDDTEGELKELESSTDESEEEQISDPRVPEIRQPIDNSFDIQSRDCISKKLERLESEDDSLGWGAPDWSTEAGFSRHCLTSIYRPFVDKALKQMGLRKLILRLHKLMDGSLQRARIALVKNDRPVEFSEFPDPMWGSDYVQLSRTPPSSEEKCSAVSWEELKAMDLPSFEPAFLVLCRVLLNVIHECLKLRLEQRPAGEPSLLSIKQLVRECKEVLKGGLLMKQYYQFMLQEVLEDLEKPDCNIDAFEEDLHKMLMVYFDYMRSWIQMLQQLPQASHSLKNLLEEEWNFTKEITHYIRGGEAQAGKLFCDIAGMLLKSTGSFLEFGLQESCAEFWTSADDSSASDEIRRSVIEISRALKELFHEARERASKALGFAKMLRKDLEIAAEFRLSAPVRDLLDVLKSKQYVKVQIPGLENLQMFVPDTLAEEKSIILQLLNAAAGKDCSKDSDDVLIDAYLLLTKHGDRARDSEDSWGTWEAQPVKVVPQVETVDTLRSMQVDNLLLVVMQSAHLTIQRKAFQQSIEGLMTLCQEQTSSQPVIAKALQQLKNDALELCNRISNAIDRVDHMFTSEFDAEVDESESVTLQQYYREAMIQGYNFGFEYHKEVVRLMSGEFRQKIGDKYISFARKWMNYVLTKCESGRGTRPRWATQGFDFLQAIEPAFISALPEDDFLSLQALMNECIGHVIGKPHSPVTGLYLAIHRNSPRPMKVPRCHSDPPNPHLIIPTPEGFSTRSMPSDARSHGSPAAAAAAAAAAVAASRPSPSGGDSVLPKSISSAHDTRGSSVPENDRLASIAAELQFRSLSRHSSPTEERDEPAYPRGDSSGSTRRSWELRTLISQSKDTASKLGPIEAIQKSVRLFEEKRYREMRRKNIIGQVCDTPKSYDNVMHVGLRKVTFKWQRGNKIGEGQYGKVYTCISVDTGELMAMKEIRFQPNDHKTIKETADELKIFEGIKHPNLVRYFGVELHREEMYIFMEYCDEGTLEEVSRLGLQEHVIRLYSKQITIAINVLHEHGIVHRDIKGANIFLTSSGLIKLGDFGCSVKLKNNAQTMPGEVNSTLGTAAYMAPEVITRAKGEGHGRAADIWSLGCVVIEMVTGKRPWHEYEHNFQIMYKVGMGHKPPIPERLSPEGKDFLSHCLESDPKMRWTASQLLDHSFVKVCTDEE

[5] = target: Mast/stem cell growth factor receptor Kit (Homo sapiens, UniProt P10721)
Chain of Mast/stem cell growth factor receptor Kit (P10721 whole entry): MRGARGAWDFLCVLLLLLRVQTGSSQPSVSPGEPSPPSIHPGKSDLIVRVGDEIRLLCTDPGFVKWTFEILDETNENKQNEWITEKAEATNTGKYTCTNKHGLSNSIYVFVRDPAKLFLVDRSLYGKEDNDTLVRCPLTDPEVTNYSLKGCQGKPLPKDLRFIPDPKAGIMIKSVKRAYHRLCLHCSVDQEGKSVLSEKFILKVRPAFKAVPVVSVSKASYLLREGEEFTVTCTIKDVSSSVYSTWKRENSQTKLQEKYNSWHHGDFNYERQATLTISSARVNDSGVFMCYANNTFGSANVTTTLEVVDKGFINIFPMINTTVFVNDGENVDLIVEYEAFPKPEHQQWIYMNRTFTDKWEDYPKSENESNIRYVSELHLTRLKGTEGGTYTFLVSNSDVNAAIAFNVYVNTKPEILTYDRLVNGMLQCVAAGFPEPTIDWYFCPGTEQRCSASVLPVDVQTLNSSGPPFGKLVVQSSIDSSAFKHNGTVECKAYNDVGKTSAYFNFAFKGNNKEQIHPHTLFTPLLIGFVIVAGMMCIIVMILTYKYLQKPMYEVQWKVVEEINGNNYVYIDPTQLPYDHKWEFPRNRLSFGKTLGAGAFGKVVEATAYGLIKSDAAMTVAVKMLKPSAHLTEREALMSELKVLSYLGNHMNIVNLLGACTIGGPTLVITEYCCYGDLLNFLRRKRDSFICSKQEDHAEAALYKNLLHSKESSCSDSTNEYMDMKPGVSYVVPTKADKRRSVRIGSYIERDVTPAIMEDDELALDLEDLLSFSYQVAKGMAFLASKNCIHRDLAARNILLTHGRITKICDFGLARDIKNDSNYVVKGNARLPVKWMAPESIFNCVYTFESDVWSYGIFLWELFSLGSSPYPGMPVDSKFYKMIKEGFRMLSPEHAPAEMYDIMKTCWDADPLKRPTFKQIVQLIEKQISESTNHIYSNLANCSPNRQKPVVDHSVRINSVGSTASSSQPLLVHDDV

[6] = target: T3, Membrane-associated tyrosine- and threonine-specific cdc2-inhibitory kinase (Homo sapiens, UniProt Q99640)
T3 sequence (Q99640 whole entry): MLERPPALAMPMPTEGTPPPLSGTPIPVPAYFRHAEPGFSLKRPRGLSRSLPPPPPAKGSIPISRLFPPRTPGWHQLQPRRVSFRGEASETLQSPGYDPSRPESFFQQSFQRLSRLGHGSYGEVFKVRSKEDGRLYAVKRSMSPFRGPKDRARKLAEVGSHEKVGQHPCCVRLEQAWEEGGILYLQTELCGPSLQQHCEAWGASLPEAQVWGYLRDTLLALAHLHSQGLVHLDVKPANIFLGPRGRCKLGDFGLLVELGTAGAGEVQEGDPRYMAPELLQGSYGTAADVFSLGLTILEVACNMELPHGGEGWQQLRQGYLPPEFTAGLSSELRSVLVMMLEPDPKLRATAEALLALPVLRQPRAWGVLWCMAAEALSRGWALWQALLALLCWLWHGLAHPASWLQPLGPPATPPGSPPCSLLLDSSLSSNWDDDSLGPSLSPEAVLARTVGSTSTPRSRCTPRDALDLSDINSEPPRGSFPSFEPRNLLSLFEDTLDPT

[7] = target: T4, Serine/threonine-protein kinase ULK3 (Mus musculus, UniProt Q3U3Q1)
T4 sequence (Q3U3Q1 whole entry): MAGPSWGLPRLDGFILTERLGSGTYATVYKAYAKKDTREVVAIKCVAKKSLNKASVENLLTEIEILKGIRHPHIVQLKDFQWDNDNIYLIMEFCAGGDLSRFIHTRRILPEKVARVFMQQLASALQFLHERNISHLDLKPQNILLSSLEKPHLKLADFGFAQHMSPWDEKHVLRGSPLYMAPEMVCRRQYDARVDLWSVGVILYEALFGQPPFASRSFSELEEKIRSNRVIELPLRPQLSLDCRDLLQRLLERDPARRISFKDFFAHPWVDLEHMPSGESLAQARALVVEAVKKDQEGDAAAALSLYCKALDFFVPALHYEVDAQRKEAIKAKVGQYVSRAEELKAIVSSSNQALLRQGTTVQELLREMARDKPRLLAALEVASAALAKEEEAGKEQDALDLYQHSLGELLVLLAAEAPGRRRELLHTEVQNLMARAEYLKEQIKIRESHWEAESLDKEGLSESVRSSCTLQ

Measured: Kd

C#Cc1cccc(Nc2ncnc3cc(OCCOC)c(OCCOC)cc23)c1 [ERLOTINIB]
not listed: [7]
Not Active: all other assays above

Cc1ccc(NC(=O)c2ccc(CN3CCN(C)CC3)cc2)cc1Nc1nccc(-c2cccnc2)n1 [IMATINIB]
Not Active: [7] | [2] | Focal adhesion kinase 1 | [4] | [6]

O=c1ncn2nc(Sc3ccc(F)cc3F)ccc2c1-c1c(Cl)cccc1Cl [NEFLAMAPIMOD]
Not Active: all assays above

CCOc1cc2ncc(C#N)c(Nc3ccc(F)c(Cl)c3)c2cc1NC(=O)/C=C/CN(C)C [PELITINIB]
Not Active: [3] | [5]

Oc1ccc(-c2nc(-c3ccc(F)cc3)c(-c3ccncc3)[nH]2)cc1 [SB-202190]
Not Active: all assays above

C[S+]([O-])c1ccc(-c2nc(-c3ccc(F)cc3)c(-c3ccncc3)[nH]2)cc1 (stereo not drawn) [SB-203580]
Not Active: all assays above

CC[C@H](CO)Nc1nc(NCc2ccccc2)c2ncn(C(C)C)c2n1 [SELICICLIB]
Not Active: all assays above

Oc1c2ccccc2c2c3c(cccc13)N=N2 [SP-600125]
Not Active: [2] | Focal adhesion kinase 1 | [4] | [5] | [6]

COc1cc2c(N3CCN(C(=O)Nc4ccc(OC(C)C)cc4)CC3)ncnc2cc1OCCCN1CCCCC1 [TANDUTINIB]
not listed: [5]
Not Active: all other assays above
